Assay: xn = mol fraction of the nth substance listed
Settings: 100 kPa

CCCCCCCC[n+]1ccccc1.[Br-] + O
Settings | electrical conductivity [S/m]
288.15 K, x1 = 0.0006303 | 0.31
288.15 K, x1 = 0.001206 | 0.47
288.15 K, x1 = 0.001745 | 0.62
288.15 K, x1 = 0.002301 | 0.78
288.15 K, x1 = 0.00309 | 0.98
288.15 K, x1 = 0.003806 | 1.12
288.15 K, x1 = 0.004431 | 1.22
288.15 K, x1 = 0.005002 | 1.29
288.15 K, x1 = 0.005537 | 1.35
288.15 K, x1 = 0.006018 | 1.4
288.15 K, x1 = 0.006445 | 1.44
288.15 K, x1 = 0.006854 | 1.48
288.15 K, x1 = 0.007227 | 1.51
288.15 K, x1 = 0.007547 | 1.54
293.15 K, x1 = 0.0006303 | 0.34
293.15 K, x1 = 0.001206 | 0.54
293.15 K, x1 = 0.001745 | 0.7
293.15 K, x1 = 0.002301 | 0.88
293.15 K, x1 = 0.00309 | 1.11
293.15 K, x1 = 0.003788 | 1.27
293.15 K, x1 = 0.004431 | 1.39
293.15 K, x1 = 0.005002 | 1.47
293.15 K, x1 = 0.00552 | 1.54
293.15 K, x1 = 0.006 | 1.59
293.15 K, x1 = 0.006445 | 1.65
293.15 K, x1 = 0.006837 | 1.69
293.15 K, x1 = 0.00721 | 1.73
293.15 K, x1 = 0.007547 | 1.76
298.15 K, x1 = 0.0006303 | 0.38
298.15 K, x1 = 0.001206 | 0.6
298.15 K, x1 = 0.001745 | 0.79
298.15 K, x1 = 0.002301 | 0.99
298.15 K, x1 = 0.00309 | 1.25
298.15 K, x1 = 0.003788 | 1.43
298.15 K, x1 = 0.004431 | 1.57
298.15 K, x1 = 0.005002 | 1.67
298.15 K, x1 = 0.00552 | 1.75
298.15 K, x1 = 0.006 | 1.81
298.15 K, x1 = 0.006428 | 1.87
298.15 K, x1 = 0.006837 | 1.93
298.15 K, x1 = 0.00721 | 1.98
298.15 K, x1 = 0.007529 | 2.02
303.15 K, x1 = 0.0006303 | 0.45
303.15 K, x1 = 0.001206 | 0.67
303.15 K, x1 = 0.001745 | 0.88
303.15 K, x1 = 0.002301 | 1.1
303.15 K, x1 = 0.00309 | 1.39
303.15 K, x1 = 0.003788 | 1.6
303.15 K, x1 = 0.004413 | 1.75
303.15 K, x1 = 0.004985 | 1.87
303.15 K, x1 = 0.005502 | 1.98
303.15 K, x1 = 0.005983 | 2.07
303.15 K, x1 = 0.006428 | 2.14
303.15 K, x1 = 0.006819 | 2.21
303.15 K, x1 = 0.007192 | 2.27
303.15 K, x1 = 0.007529 | 2.32
308.15 K, x1 = 0.0006303 | 0.48
308.15 K, x1 = 0.001206 | 0.73
308.15 K, x1 = 0.001745 | 0.97
308.15 K, x1 = 0.002283 | 1.21
308.15 K, x1 = 0.003072 | 1.54
308.15 K, x1 = 0.00377 | 1.77
308.15 K, x1 = 0.004413 | 1.98
308.15 K, x1 = 0.004985 | 2.13
308.15 K, x1 = 0.005502 | 2.23
308.15 K, x1 = 0.005983 | 2.33
308.15 K, x1 = 0.00641 | 2.42
308.15 K, x1 = 0.006819 | 2.49
308.15 K, x1 = 0.007192 | 2.56
308.15 K, x1 = 0.007512 | 2.62

— the CheMixHub ionic liquid set
